Patent US8466155B2, “Pyrimidines” (Boehringer Ingelheim International GmbH, priority 2009, dated 2013)

What follows are compounds tested against T1, PTK2 (Homo sapiens, UniProt Q05397) (assay: PTK2 enzyme test, Assay 1 (DELFIA, PT60 antibody)). Settings: 1 h pre-incubation, 1 h kinase reaction, values without *.
T1 construct: purchased Invitrogen PV3832
Assay type: biochemical
Experimental: This test uses active PTK2 enzyme (Invitrogen Code PV3832) and poly-Glu-Tyr (4:1, Sigma P-0275) as the kinase substrate. The kinase activity is detected through the phosphorylation of the substrate in a DELFIA™ assay. The phosphorylated substrate is detected with the europium-labelled phosphotyrosine antibody PT60 (Perkin Elmer, No.: AD00400).
In order to determine concentration-activity curves with PTK2-inhibitors the compounds are serially diluted in 10% DMSO/H20 and 10 μL of each dilution are placed in each well of a 96-well microtitre plate (clear plate with a U-shaped base, Greiner No. 650101) (the inhibitors are tested in duplicates) and mixed with 10 μL/well of PTK2 kinase (0.01 μg/well). PTK2 kinase has been correspondingly diluted beforehand with kinase dilution buffer (20 mM TRIS/HCl pH 7.5, 0.1 mM EDTA, 0.1 mM EGTA, 0.286 mM sodium orthovanadate, 10% glycerol with the addition of freshly prepared BSA (fraction V, 1 mg/mL) and DTT (1 mM)). The test compound and the PTK2 kinase are pre-incubated for 1 h at RT and shaken at 500 revolutions per min. The reaction is started by the addition of 10 μL/well poly (Glu,Tyr) substrate (25 μg/well poly (Glu, Tyr), 0.05 μg/well biotinylated poly (Glu,Tyr) dissolved in 250 mM TRIS/HCl pH 7.5, 9 mM DTT)—the final concentration of DMSO is 2%. Then 20 μL of ATP Mix (30 mM TRIS/HCl pH 7.5, 0.02% Brij, 0.2 mM sodium orthovanadate, 10 mM magnesium acetate, 0.1 mM EGTA, 1× phosphatase inhibitor cocktail 1 (Sigma, No.: P2850), 50 μM ATP (Sigma, No.: A3377; 15 mM stock solution)) are added. After 1 h of kinase reaction (the plates are shaken at 500 rpm), the reaction is stopped by the addition of 12 μL/well 100 mM EDTA, pH 8.0 and shaken for a further 5 min at RT (500 rpm). 55 μL of the reaction mixture are transferred into a streptavidin plate (Strepta Well High Bind (transparent, 96-well) made by Roche, No.: 11989685001) and incubated for 1 h at RT (shaking at 500 rpm). Then the microtitre plate is washed three times with 200 μL/well D-PBS (Invitrogen, No. 14190). 100 μL of a solution containing DELFIA Eu-N1 Anti-Phosphotyrosine PT60 antibody (Perkin Elmer, No.: AD0040, diluted 1:2000 in DELFIA test buffer (Perkin Elmer, No.: 1244-111)) is then added and the mixture is incubated for 1 h at RT (shaking at 500 rpm). Then the plate is washed three times with 200 μL/well DELFIA washing buffer (Perkin Elmer, No.: 1244-114), 200 μL/well strengthening solution (Perkin Elmer, No.: 1244-105) are added and the mixture is incubated for 10 min at RT (shaking at 300 rpm).
The time-delayed europium fluorescence is then measured in a microtitre plate reader (VICTOR^3, Perkin Elmer). […] Wells that contain test buffer instead of enzyme are used as a control of the background kinase activity.
The IC50 values are determined from analyses of the concentration activity by iterative calculation with the aid of a sigmoid curve analysis algorithm (FIFTY, based on GraphPAD Prism Version 3.03) with a variable Hill coefficient.

T1 sequence (Q05397 whole entry): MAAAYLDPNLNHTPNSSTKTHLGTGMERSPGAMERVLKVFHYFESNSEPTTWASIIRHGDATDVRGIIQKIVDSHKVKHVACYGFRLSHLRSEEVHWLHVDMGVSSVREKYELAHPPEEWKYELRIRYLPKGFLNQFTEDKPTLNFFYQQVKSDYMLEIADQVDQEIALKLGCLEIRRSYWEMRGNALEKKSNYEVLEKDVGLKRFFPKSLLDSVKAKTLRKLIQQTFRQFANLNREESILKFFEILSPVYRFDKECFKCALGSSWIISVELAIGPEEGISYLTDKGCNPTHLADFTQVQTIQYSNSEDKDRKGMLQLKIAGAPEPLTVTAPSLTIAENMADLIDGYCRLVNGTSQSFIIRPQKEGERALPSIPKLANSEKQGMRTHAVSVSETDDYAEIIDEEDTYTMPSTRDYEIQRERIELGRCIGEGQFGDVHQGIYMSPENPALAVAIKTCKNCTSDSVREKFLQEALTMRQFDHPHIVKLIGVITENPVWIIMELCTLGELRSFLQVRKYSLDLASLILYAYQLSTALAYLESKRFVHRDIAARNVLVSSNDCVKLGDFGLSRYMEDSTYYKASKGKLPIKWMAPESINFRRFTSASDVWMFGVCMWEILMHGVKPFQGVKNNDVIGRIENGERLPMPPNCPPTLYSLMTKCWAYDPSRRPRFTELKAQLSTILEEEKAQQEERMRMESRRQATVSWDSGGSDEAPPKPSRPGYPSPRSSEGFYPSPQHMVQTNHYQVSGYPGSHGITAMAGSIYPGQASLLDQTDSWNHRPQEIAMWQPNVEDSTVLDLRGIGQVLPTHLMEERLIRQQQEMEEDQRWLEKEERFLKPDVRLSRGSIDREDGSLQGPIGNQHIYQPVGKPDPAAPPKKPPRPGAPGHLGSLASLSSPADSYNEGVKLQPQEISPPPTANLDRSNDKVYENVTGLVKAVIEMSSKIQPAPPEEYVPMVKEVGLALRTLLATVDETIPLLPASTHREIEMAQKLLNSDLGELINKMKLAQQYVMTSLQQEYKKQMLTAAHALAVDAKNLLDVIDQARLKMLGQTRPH

SMILES | IC50
COc1ccc(C(=O)NN2CCN(C)CC2)cc1Nc1ncc(C(F)(F)F)c(O[C@@H]2Cc3ccccc3[C@H]2N(C)S(C)(=O)=O)n1 [Example 80] | 0.41 nM
COc1cc(C(=O)N[C@H]2CC[C@H](O)CC2)c(F)cc1Nc1ncc(Cl)c(O[C@@H]2Cc3ccccc3[C@H]2N(C)S(C)(=O)=O)n1 [Example 55] | 6 nM
COc1cc(C(=O)NCCn2ccnc2C)c(Cl)cc1Nc1ncc(Cl)c(O[C@@H]2Cc3ccccc3[C@H]2N(C)S(C)(=O)=O)n1 [Example 35] | 2 nM
COc1cc(C(=O)NC2CCN(C)CC2)c(Cl)cc1Nc1ncc(C(F)(F)F)c(O[C@@H]2CCC[C@H]2NS(=O)(=O)CCl)n1 [Example 47] | 3 nM
COc1cc(NC(=O)C2CCN(C)CC2)ccc1Nc1ncc(C(F)(F)F)c(O[C@@H]2Cc3ccccc3[C@H]2N(C)S(C)(=O)=O)n1 [Example 91] | 4 nM
COc1cc(C(=O)NC2CCN(C)CC2)c(Cl)cc1Nc1ncc(Cl)c(O[C@@H]2CCC[C@H]2N(C)S(C)(=O)=O)n1 [Example 84, 2-chloro-4-{5-chloro-4-[(1R,2R)-2-(methanesulphonyl-methyl-amino)-cyclopentyloxy]-pyrimidin-2-ylamino}-5-methoxy-N-(1-methyl-piperidin-4-yl)-benzamide] | 0.32 nM
COc1cc(C(=O)NC[C@@H](O)CO)c(Cl)cc1Nc1ncc(Cl)c(O[C@@H]2Cc3ccccc3[C@H]2N(C)S(C)(=O)=O)n1 [Example 42] | 4 nM
COc1cc(C(=O)N[C@H]2CC[C@H](N3CCN(CC4CC4)CC3)CC2)c(F)cc1Nc1ncc(Cl)c(O[C@@H]2Cc3ccccc3[C@H]2N(C)S(C)(=O)=O)n1 [Example 58] | 6 nM
COc1cc(C(=O)N(C)C)c(F)cc1Nc1ncc(Cl)c(O[C@@H]2Cc3ccccc3[C@H]2N(C)S(C)(=O)=O)n1 [Example 54] | 92 nM
COc1cc(C(=O)NCC(C)(C)C)ccc1Nc1ncc(C(F)(F)F)c(O[C@@H]2Cc3ccccc3[C@H]2N(C)S(C)(=O)=O)n1 [Example 15] | 11 nM
CONC(=O)c1cc(OC)c(Nc2ncc(Cl)c(O[C@@H]3Cc4ccccc4[C@H]3N(C)S(C)(=O)=O)n2)cc1F [Example 43] | 22 nM
COc1cc(C(=O)N[C@H]2CC[C@H](N3CCN(CC4CC4)CC3)CC2)c(F)cc1Nc1ncc(C(F)(F)F)c(O[C@@H]2Cc3ccccc3[C@H]2N(C)S(C)(=O)=O)n1 [Example 7] | 8 nM
COc1cc(C(=O)NCCN(C)C)c(Cl)cc1Nc1ncc(C(F)(F)F)c(O[C@@H]2CCCC[C@H]2NS(C)(=O)=O)n1 [Example 108] | 0.44 nM
COc1cc(C(=O)NCCN(C)C)c(F)cc1Nc1ncc(C(F)(F)F)c(O[C@@H]2CCCC[C@H]2N(C)S(C)(=O)=O)n1 [Example 110] | 0.35 nM
COc1cc(C(=O)N[C@H]2CCN(C)C[C@@H]2OC)ccc1Nc1ncc(C(F)(F)F)c(O[C@@H]2Cc3ccccc3[C@H]2N(C)S(C)(=O)=O)n1 [Example 29, 4-{4-[(1R,2R)-1-(methanesulphonyl-methyl-amino)-indan-2-yloxy]-5-trifluoromethyl-pyrimidin-2-ylamino}-3-methoxy-N-((3S,4S)-3-methoxy-1-methyl-piperidin-4-yl)-benzamide] | 3 nM
COc1cc(C(=O)NCC2CC2)c(F)cc1Nc1ncc(C(F)(F)F)c(O[C@@H]2Cc3ccccc3[C@H]2N(C)S(C)(=O)=O)n1 [Example 9] | 19 nM
CONC(=O)c1cc(OC)c(Nc2ncc(C(F)(F)F)c(O[C@@H]3Cc4ccccc4[C@H]3N(C)S(C)(=O)=O)n2)cc1F [Example 1] | 6 nM
COc1cc(C(=O)NC2CCN(C)CC2)c(Cl)cc1Nc1ncc(Cl)c(O[C@@H]2Cc3ccccc3[C@H]2N(C)S(C)(=O)=O)n1 [Example 62] | 3 nM
COc1cc(C(=O)NC2CCN(C)CC2)ccc1Nc1ncc(C(F)(F)F)c(O[C@H]2Cc3ccccc3[C@@H]2N(C)S(C)(=O)=O)n1 [Example 32] | 400 nM

SMILES | IC50
COc1ccc(C(=O)NCCCN(C)C)cc1Nc1ncc(C(F)(F)F)c(O[C@@H]2Cc3ccccc3[C@H]2N(C)S(C)(=O)=O)n1 [Example 82] | 0.38 nM
COc1cc(C(=O)NC2CCN(C)CC2)ccc1Nc1ncc(C(F)(F)F)c(O[C@@H]2Cc3ccccc3[C@@H]2N(C)S(C)(=O)=O)n1 [Example 69] | 42 nM
COc1cc(C(=O)NC2CCN(C)CC2)c(Cl)cc1Nc1ncc(C(F)(F)F)c(O[C@@H]2CCCC[C@H]2NS(C)(=O)=O)n1 [Example 93] | 0.42 nM
COc1cc(C(=O)NN2CCN(C)CC2)c(F)cc1Nc1ncc(Cl)c(O[C@@H]2Cc3ccccc3[C@H]2N(C)S(C)(=O)=O)n1 [Example 59] | 6 nM
COc1cc(C(=O)NC2CCN(C)CC2)c(Cl)cc1Nc1ncc(C(F)(F)F)c(O[C@@H]2CCCC[C@H]2N(C)S(C)(=O)=O)n1 [Example 74, 2-chloro-4-{4-[(1R,2R)-2-(methanesulphonyl-methyl-amino)-cyclohexyloxy]-5-trifluoromethyl-pyrimidin-2-ylamino}-5-methoxy-N-(1-methyl-piperidin-4-yl)-benzamide] | 0.42 nM
COc1cc(C(=O)N[C@H]2CC[C@H](N3CCN(CC4CC4)CC3)CC2)ccc1Nc1ncc(C(F)(F)F)c(O[C@@H]2Cc3ccccc3[C@H]2N(C)S(C)(=O)=O)n1 [Example 18] | 4 nM
COc1cc(C(=O)NC2CCN(C)CC2)c(F)cc1Nc1ncc(C(F)(F)F)c(O[C@@H]2CCCC[C@H]2NS(C)(=O)=O)n1 [Example 105] | 0.39 nM
COc1cc(C(=O)NC[C@@H](O)CO)c(F)cc1Nc1ncc(C(F)(F)F)c(O[C@@H]2Cc3ccccc3[C@H]2N(C)S(C)(=O)=O)n1 [Example 64] | 6 nM
COc1cc(NC(=O)C2CCCN(C)C2)ccc1Nc1ncc(C(F)(F)F)c(O[C@@H]2Cc3ccccc3[C@H]2N(C)S(C)(=O)=O)n1 (stereo partly shown) [Example 92] | 3 nM
COc1cc(C(=O)NCCCN(C)C)c(F)cc1Nc1ncc(Cl)c(O[C@@H]2Cc3ccccc3[C@H]2N(C)S(C)(=O)=O)n1 [Example 60] | 3 nM
CCS(=O)(=O)N[C@@H]1CCC[C@H]1Oc1nc(Nc2cc(F)c(C(=O)NC3CCN(C)CC3)cc2OC)ncc1C(F)(F)F [Example 44] | 6 nM
COc1cc(C(=O)NCCN(C)C)c(F)cc1Nc1ncc(C(F)(F)F)c(O[C@@H]2CCCC[C@H]2NS(C)(=O)=O)n1 [Example 106] | 1 nM
COc1cc(C(=O)NN2CCN(C)CC2)ccc1Nc1ncc(C(F)(F)F)c(O[C@@H]2CCCC[C@H]2N(C)S(C)(=O)=O)n1 [Example 77, 4-{4-[(1R,2R)-2-(methanesulphonyl-methyl-amino)-cyclohexyloxy]-5-trifluoromethyl-pyrimidin-2-ylamino}-3-methoxy-N-(4-methyl-piperazin-1-yl)-benzamide] | 0.3 nM
COc1cc(C(=O)N(C)C)c(Cl)cc1Nc1ncc(Cl)c(O[C@@H]2Cc3ccccc3[C@H]2N(C)S(C)(=O)=O)n1 [Example 37] | 28 nM
COc1cc(C(=O)NC2CCN(C)CC2)c(F)cc1Nc1ncc(C(F)(F)F)c(O[C@@H]2Cc3ccccc3[C@H]2NS(C)(=O)=O)n1 [Example 24, 2-fluoro-4-[4-((1R,2R)-1-methanesulphonylamino-indan-2-yloxy)-5-trifluoromethyl-pyrimidin-2-ylamino]-5-methoxy-N-(1-methyl-piperidin-4-yl)-benzamide] | 1 nM
COc1cc(C(=O)NC[C@H](O)CO)c(F)cc1Nc1ncc(Cl)c(O[C@@H]2Cc3ccccc3[C@H]2N(C)S(C)(=O)=O)n1 [Example 56] | 9 nM
COc1cc(C(=O)NC2CCN(C)CC2)ccc1Nc1ncc(C(F)(F)F)c(O[C@@H]2Cc3ccccc3[C@H]2NC(C)=O)n1 [Example 68, 4-[4-((1R,2R)-1-acetylamino-indan-2-yloxy)-5-trifluoromethyl-pyrimidin-2-ylamino]-3-methoxy-N-(1-methyl-piperidin-4-yl)-benzamide] | 2 nM
COc1cc(C(=O)NCCCN(C)C)c(Cl)cc1Nc1ncc(Cl)c(O[C@@H]2Cc3ccccc3[C@H]2N(C)S(C)(=O)=O)n1 [Example 41] | 2 nM
